Source: ChEMBL document CHEMBL1201862, “PubChem BioAssay data set” (2004)
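How tested: cells in 96-well plates exposed to compound for 48 hours at five concentrations. Here, GI50 denotes the concentration required for 50% inhibition of growth.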 Activity calls are given as the source filed them. Cut-off read from the data, not from the text of the source: active = GI50 up to about 1.1 µM and inactive = higher.

Key:
Experiment in all cases: NCI-60 cell line screen, 48 h
[1] = test system: ACHN
[2] = test system: NCI-H522
[3] = test system: NCI-H23
[4] = test system: COLO 205
[5] = test system: Malme-3M
[6] = test system: SF-539
[7] = test system: HOP-18
[8] = test system: K562
[9] = test system: UACC-257
[10] = test system: NCI-H460
[11] = test system: UO-31
[12] = test system: NCI-H226
[13] = test system: HOP-92
[14] = test system: RXF 393
[15] = test system: SN12C
[16] = test system: OVCAR-5
[17] = test system: SF-295
[18] = test system: OVCAR-8
[19] = test system: CAKI-1
[20] = test system: DMS-273
[21] = test system: A498
[22] = test system: SNB-75
[23] = test system: HOP-62
[24] = test system: KM-20L2
[25] = test system: SF-268
[26] = test system: CCRF-CEM
[27] = test system: 786-0
[28] = test system: M19-MEL
[29] = test system: OVCAR-4
[30] = test system: LXFL 529
[31] = test system: HCT-116
[32] = test system: SK-OV-3
[33] = test system: SNB-78
[34] = test system: DLD-1
[35] = test system: MOLT-4
[36] = test system: SK-MEL-5
[37] = test system: HT-29
[38] = test system: A549
[39] = test system: M14
[40] = test system: OVCAR-3
[41] = test system: TK-10
[42] = test system: SW-620
[43] = test system: IGROV-1
[44] = test system: SK-MEL-28
[45] = test system: UACC-62
[46] = test system: EKVX
[47] = test system: SK-MEL-2
[48] = test system: U-251
[49] = test system: HL-60
[50] = test system: LOX IMVI
[51] = test system: SNB-19

`COc1cc(C2c3cc4c(cc3[C@@H](NCCCN3CCCC3=O)C3COC(=O)[C@H]23)OCO4)cc(OC)c1O` (some centres not stated) was tested, and the GI50 [1] was 2.92 µM (inactive), the GI50 [2] was 0.319 µM (active) and the GI50 [3] was 0.515 µM (active). For the same compound, the GI50 [4] was 4.17 µM (inactive), the GI50 [5] was 0.405 µM (active) and the GI50 [6] was 0.393 µM (active). For the same compound, the GI50 [7] was > 17.5 µM (inactive).

In the case of `CC(=O)Nc1ccc(C(=O)NN2C(=O)C(Cl)C2c2ccccc2)cc1` (configuration not stated), the GI50 [8] is reported as > 100 µM (inactive), the GI50 [9] is reported as > 100 µM (inactive) and the GI50 [10] is reported as > 100 µM (inactive). For the same compound, the GI50 [11] was > 100 µM (inactive), the GI50 [12] was > 100 µM (inactive) and the GI50 [13] was > 100 µM (inactive). For the same compound, the GI50 [14] was > 100 µM (inactive), the GI50 [15] was > 100 µM (inactive) and the GI50 [16] was > 100 µM (inactive). For the same compound, the GI50 [17] was > 100 µM (inactive), the GI50 [18] was > 100 µM (inactive) and the GI50 [19] was > 100 µM (inactive). The GI50 [20] was > 100 µM (inactive), the GI50 [21] was > 100 µM (inactive) and the GI50 [22] was > 100 µM (inactive). The GI50 [23] was > 100 µM (inactive), the GI50 [24] was > 100 µM (inactive) and the GI50 [25] was > 100 µM (inactive). For the same compound, the GI50 [26] was > 100 µM (inactive), the GI50 [27] was > 100 µM (inactive) and the GI50 [28] was > 100 µM (inactive). For the same compound, the GI50 [29] was > 100 µM (inactive), the GI50 [30] was > 100 µM (inactive) and the GI50 [1] was > 100 µM (inactive). The GI50 [31] was > 100 µM (inactive), the GI50 [32] was > 100 µM (inactive) and the GI50 [33] was > 100 µM (inactive). The GI50 [34] was > 100 µM (inactive), the GI50 [35] was > 100 µM (inactive) and the GI50 [36] was > 100 µM (inactive). For the same compound, the GI50 [37] was > 100 µM (inactive), the GI50 [38] was > 100 µM (inactive) and the GI50 [39] was > 100 µM (inactive). The GI50 [40] was > 100 µM (inactive), the GI50 [2] was > 100 µM (inactive) and the GI50 [41] was > 100 µM (inactive). For the same compound, the GI50 [42] was > 100 µM (inactive), the GI50 [3] was > 100 µM (inactive) and the GI50 [43] was > 100 µM (inactive). The GI50 [44] was > 100 µM (inactive), the GI50 [45] was > 100 µM (inactive) and the GI50 [4] was > 100 µM (inactive). For the same compound, the GI50 [5] was > 100 µM (inactive), the GI50 [46] was > 100 µM (inactive) and the GI50 [47] was > 100 µM (inactive). The GI50 [6] was > 100 µM (inactive), the GI50 [48] was > 100 µM (inactive) and the GI50 [49] was > 100 µM (inactive). For the same compound, the GI50 [50] was > 100 µM (inactive) and the GI50 [51] was > 100 µM (inactive).
